# Source: patent publication US20050112573A1, “Method of detecting toxic substance” (priority 2001, published 2005)
# Tested on: yeast genes (level of expressed mRNA)
# Assay: DNA chip analysis of expressed mRNA of yeast genes after 2 h culture with a toxic chemical substance
# Type: cell-based, Saccharomyces cerevisiae S288C
# Conditions: for The level of expressed mRNA in the presence of chemical substance/ (ratio to absence): transport facilitation protein gene; for The level of expressed mRNA in the presence of chemical substance/: ratio to no chemical; for The level of expressed mRNA in the presence of chemical substance/ (ratio to absence of chemical substance): stress protein genes, DNA chip
# Protocol: Yeast (Saccharomyces cerevtisiae S288C (α SUC2mal mel gap2 CUP1)) were cultured at 25° C. on YPD medium (yeast extract 1%, polypepton 2%, glucose 2%). One of toxic chemical substances was added to the cell at logarithmic growth phase, and the cell was further cultured for two hours. Cell was cultured without any chemical substance in the same condition, and was used as control. Concentrations of the chemical substances were defined to inhibit the growth of the yeast but not lead to death.
# After the completion of cultivation, the culture was centrifuged to collect the cells. To the cells, sodium acetate buffer (50 mM sodium acetate, 10 mM EDTA, 1% SDS) was added, and the mixture was shaken at 65° C. for five minutes, followed by returning to room temperature, and obtaining the supernatant, which procedure was repeated two times. To the supernatant, ½ amount of a solution of phenol/chloroform was added, and the mixture was centrifuged to give a supernatant, which was added with an equal amount of chloroform, and the mixture was centrifuged to give a supernatant. To the supernatant, an equal amount of isopropanol containing 0.3 M sodium acetate was added, and the mixture was allowed to stand at room temperature for 30 minutes, after which the mixture was centrifuged to give a sediment of the whole RNAs. Seventy % ethanol was added to the sediment, and the mixture was again centrifuged to give a sediment, which was then dried and dissolved in water. mRNA was isolated from the whole RNAs as followings. In view of the fact that a poly A chain is attached to the 3′ terminus of mRNA, a polynucleotide having a poly T structure which was immobilized on the surface of latex beads was used to trap the mRNA, and then the mRNA was washed and eluted with spine column (Oligotex-dT30<Super>mRNA Purification Kit, Takara). Reverse transcription of the mRNA was conducted with a reverse transcriptase (Super Script II Reverse Transcriptase; catalogue No. 18064-014, GibcoBRL) using fluorescence-labeled nucleotides to give cDNAs that were introduced with Cy3-dUTP or Cy5-dUTP during the reverse transcription.
# The labeled cDNAs were dissolved in TE buffer (10 mM Tris-HCl/1 mM EDTA, pH8.0), and the solution was dropped on the DNA chip containing the whole genes of yeast (DNA Chip Research Inc. Japan) so that the cDNAs were hybridized on the DNA chip at 65° C. for over 12 hours. The fluoresces intensity of the DNA chip was read with a scanner, and the ratio relative to the fluorescence intensity resulting from the absence of chemical substance was estimated as the following, which is shown in Tables 1 to 9: [formula]
# In the Tables, “Intensity” indicated in the rightmost column is a value of the level of expressed mRNA of each gene in control cells as divided by the average level of the expressions of the whole genes.
substance,measurement,setting,value
sodium dodecylbenzosulfonate [(17)],The level of expressed mRNA in the presence of chemical substance/ (ratio to absence),yeast gene YKL188C,1.1
same,The level of expressed mRNA in the presence of chemical substance/ (ratio to absence),yeast gene YKL192C,1.0
same,The level of expressed mRNA in the presence of chemical substance/The level of expressed mRNA in the absence of chemical substance,yeast gene YKL193C,1.2
same,The level of expressed mRNA in the presence of chemical substance/ (ratio to absence),yeast gene YKL209C,1.1
same,The level of expressed mRNA in the presence of chemical substance/ (ratio to absence),yeast gene YKL217W,1.7
same,The level of expressed mRNA in the presence of chemical substance/in the absence of chemical substance,yeast gene YKL218C,2.5
same,The level of expressed mRNA in the presence of chemical substance/ (ratio to absence),yeast gene YKL221W,0.8
same,The level of expressed mRNA in the presence of chemical substance/,yeast gene YKR007W,0.8
same,"The level of expressed mRNA in the presence of chemical substance/ (in its absence), gene YKR009C","yeast gene YKR009C, ratio of DNA chip fluorescence intensity to that without chemical substance",1.9
same,The level of expressed mRNA in the presence of chemical substance/,yeast gene YKR020W,1.3
same,"The level of expressed mRNA in the presence of chemical substance/ (in its absence), gene YKR034W","yeast gene YKR034W, ratio of DNA chip fluorescence intensity to that without chemical substance",0.8
same,The level of expressed mRNA in the presence of chemical substance/ (ratio to absence),yeast gene YKR039W,0.9
same,The level of expressed mRNA in the presence of chemical substance/ (ratio to absence of chemical substance),yeast gene YKR053C,2.8
same,"The level of expressed mRNA in the presence of chemical substance/ in its absence, gene YKR058W","yeast gene YKR058W, energy system protein genes, 2 h culture with the chemical, ratio to control without chemical",0.8
same,The level of expressed mRNA in the presence of chemical substance/,yeast gene YKR071C,0.9
same,The level of expressed mRNA in the presence of chemical substance/in the absence of chemical substance,yeast gene YKR097W,1.1
same,The level of expressed mRNA in the presence of chemical substance/ (ratio to absence),yeast gene YKR105C,0.8
same,The level of expressed mRNA in the presence of chemical substance/ (ratio to absence),yeast gene YKR106W,0.9
same,The level of expressed mRNA in the presence of chemical substance/,yeast gene YLL025W,1.0
same,The level of expressed mRNA in the presence of chemical substance/ (ratio to absence),yeast gene YLL028W,1.2
same,The level of expressed mRNA in the presence of chemical substance/ (ratio to absence),yeast gene YLL055W,1.1
same,The level of expressed mRNA in the presence of chemical substance/ (ratio to absence),yeast gene YLL061W,0.6
same,The level of expressed mRNA in the presence of chemical substance/,yeast gene YLL062C,0.9
same,"The level of expressed mRNA in the presence of chemical substance/ (in its absence), gene YLR006C","yeast gene YLR006C, ratio of DNA chip fluorescence intensity to that without chemical substance",1.6
same,The level of expressed mRNA in the presence of chemical substance/ (ratio to absence of chemical substance),yeast gene YLR006C,1.6
same,The level of expressed mRNA in the presence of chemical substance/in the absence of chemical substance,yeast gene YLR027C,1.3
same,The level of expressed mRNA in the presence of chemical substance/ (ratio to absence),yeast gene YLR092W,1.0
same,The level of expressed mRNA in the presence of chemical substance/,yeast gene YLR108C,1.0
same,The level of expressed mRNA in the presence of chemical substance/The level of expressed mRNA in the absence of chemical substance,yeast gene YLR120C,3.5
same,The level of expressed mRNA in the presence of chemical substance/in the absence of chemical substance,yeast gene YLR133W,1.1
same,The level of expressed mRNA in the presence of chemical substance/The level of expressed mRNA in the absence of chemical substance,yeast gene YLR136C,1.8
same,The level of expressed mRNA in the presence of chemical substance/,yeast gene YLR145W,1.0
same,The level of expressed mRNA in the presence of chemical substance/in the absence of chemical substance,yeast gene YLR155C,1.4
same,The level of expressed mRNA in the presence of chemical substance/,yeast gene YLR156W,1.1
same,The level of expressed mRNA in the presence of chemical substance/in the absence of chemical substance,yeast gene YLR158C,1.4
same,The level of expressed mRNA in the presence of chemical substance/The level of expressed mRNA in the absence of chemical substance,yeast gene YLR178C,2.0
same,The level of expressed mRNA in the presence of chemical substance/in the absence of chemical substance,yeast gene YLR195C,0.9
same,The level of expressed mRNA in the presence of chemical substance/,yeast gene YLR247C,1.2
same,The level of expressed mRNA in the presence of chemical substance/The level of expressed mRNA in the absence of chemical substance,yeast gene YLR250W,1.4
same,The level of expressed mRNA in the presence of chemical substance/,yeast gene YLR267W,1.2
same,The level of expressed mRNA in the presence of chemical substance/,yeast gene YLR280C,1.2
same,The level of expressed mRNA in the presence of chemical substance/,yeast gene YLR290C,1.3
same,"The level of expressed mRNA in the presence of chemical substance/ in its absence, gene YLR295C","yeast gene YLR295C, energy system protein genes, 2 h culture with the chemical, ratio to control without chemical",0.9
same,"The level of expressed mRNA in the presence of chemical substance/ (ratio to absence), gene YLR295C","yeast gene YLR295C, mitochondria-located protein genes, 2 h culture with chemical",0.9
same,The level of expressed mRNA in the presence of chemical substance/in the absence of chemical substance,yeast gene YLR303W,1.5
same,The level of expressed mRNA in the presence of chemical substance/,yeast gene YLR311C,1.3
same,The level of expressed mRNA in the presence of chemical substance/The level of expressed mRNA in the absence of chemical substance,yeast gene YLR327C,3.3
